Legend:
[1] = ABTS radical scavenging assay; format: biochemical; details: for IC50: 30 min incubation, EtOH, absorbance at 734 nm; for ABTS-TEAC100: Trolox Equivalent Antioxidant Capacity vs 100 µM solution of the substance, from ABTS assay
Experimental: ABTS^+ radical was produced by reacting 2,2′-azino-bis-3-ethylbenzthiazoline-6-sulphonic acid (ABTS) 7 mM with K2S2O8 2.45 mM, both reactants dissolved in water, and at the volume ratio of 1:1. The mixture was stored in the dark at room temperature for 16 h. The ABTS^+ solution was diluted to give an absorbance of 0.750 ± 0.025 at 734 nm in EtOH. All the compounds tested were dissolved in EtOH. 150 µL of each compound solution was added to the wells of the 96-well plate, followed by the addition of 50 µL of the ABTS^+ radical solution. Final compound concentrations tested were 0, 5, 10, 20, 50, 100, 150, 200 µM. The absorbance change at 734 nm was recorded after 30 min incubation in the dark, and the percentage of radical scavenging was calculated for each concentration relative to a blank containing no scavenger. The degree of decolorization was calculated as the percentage reduction of absorbance. The ABTS^+ radical scavenging activity was calculated as follows: Percentage ABTS^+ radical scavenging activity = {1 − [As/Ac]} × 100(1) where As is the absorbance of the ABTS^+ radical solution containing samples and Ac the absorbance of the control solution without antioxidant. The percentages of ABTS^+ radical reduced were plotted against compound concentration. Trolox was used as a reference antioxidant. All the assays were carried out three times by quadruplicate for each compound.

[2] = FRAP (Ferric Reducing Antioxidant Power) assay; format: biochemical; details: for FRAP-TEAC100: Trolox Equivalent Antioxidant Capacity vs 100 µM solution of the substance, from FRAP assay; for FRAP Assay (%) at 100 µM / FRAP Assay (%) at 200 µM: 30 min, 593 nm
Experimental: The assay was carried out according to the method of Benzie et al. with slight modifications, in a 96-well microplate. FRAP reagent was prepared by mixing 10 mL of 300 mM acetate buffer with 1 mL of 10 mM 2,4,6-tripyridyl-S-triazine (TPTZ) in HCl 40 mM and 1mL of FeCl3·6H2O 20 mM. Firstly, 190 µL of the FRAP reagent were added to all wells of the 96-well plate, followed by the addition to the well of 10 µL of the test compounds dissolved in Ethanol to reach the final concentrations assayed (0, 5, 10, 20, 50, 100, 150, 200 µM). After 30 min incubation in the dark, the absorbance was read at 593 nm. Trolox was used as assay control. Three different assays were carried out by quadruplicate for each compound.

[3] = Cytotoxicity in SH-SY5Y cells (MTT); format: cell-based; details: human, SH-SY5Y neuronal cells, concentration reducing cell viability to 50% of control
Experimental: So, to study the neuroprotectant potential of β-diketones in the SH-SY5Y cell line, we firstly need to determine their cytotoxicity in the same cellular model. […] In addition to that, within each series, the introduction of a second fluorine atom in the left-hand side phenyl ring decreases also the cytotoxicity.
SH-SY5Y cells were seeded into 96-well plates at a density of 5 × 10^3 cells/well and grown in the incubator for 24 h. All compounds tested were dissolved and eventually further diluted in dimethylsulfoxide (DMSO). After overnight incubation, the cells were treated with different test concentrations (5, 10, 20, 50, 100, 150, 200 µM) in a final volume of 200 µL with four replicates each. […] Cell proliferation or viability was measured using the 3-(4,5-dimethylthiazol-2-yl)-2,5-diphenyl tetrazolium bromide (MTT) assay. After 24 h, 20 µL of MTT (5 mg/mL) was added to each well and the plate was incubated at 37 °C in the dark for 2 h. Supernatants were removed and the formazan crystals were solubilized in DMSO (200 µL/well), under 10 min shaking at room temperature. The reduction of MTT was quantified by absorbance at 570 nm Varioskan microplate reader (Thermo Fisher Scientific, Vantaa, Finland). Effects of the test compounds on cell viability were calculated using cells treated with vehicle as control. The data were subjected to linear regression analysis and the regression lines were plotted for the best fit. The IC50 (inhibition of cell viability) concentrations were calculated using the respective dose-response curves.

[4] = DPPH radical scavenging assay; format: biochemical; details: antioxidant concentration that decreases initial DPPH^• concentration by 50%; 30 min, 517 nm
Experimental: The assay was performed in a 96-well microplate. A 0.2 mM solution of 2,2-diphenyl-1-picryl-hydrazyl-hydrate (DPPH) in ethanol was prepared. All the compounds tested were dissolved in EtOH. Firstly, 150 µL of each compound solution was added to the wells of the 96-well plate, followed by the addition of 50 µL of the DPPH solution. Final compound concentrations tested were 0, 5, 10, 20, 50, 100, 150, 200 µM. The change in absorbance at 517 nm was measured after 30 min incubation in the dark. The free radical scavenging activity was calculated as inhibition using the following Equation (2): Percentage DPPH radical scavenging activity = {1 − [As/Ac]} × 100(2) where As is the absorbance of the DPPH solution containing samples and Ac the absorbance of the control solution without antioxidant but with DPPH. The percentages of DPPH reduced were plotted against compound concentration. The experiment was also conducted using Trolox as reference antioxidant. Assays were performed three times by quadruplicate for each compound.

[5] = Iron chelation capacity (Fe^+2-ferrozine complex); format: biochemical; details: all experiments, both 50 and 200 µM
Experimental: To decrease the level of free Fe^2+ that can reduce H2O2 to the ^•OH radical and produce other ROS, it is worth to evaluate the iron chelation capacity of new potential AOX compounds as potential new therapeutic agents against neurodegenerative diseases. […] In this assay ferrozine form complexes with Fe^+2 in a quantitative manner, and in the presence of chelating compounds this complex is disrupted.
The iron chelation capacity was determined according to the method of Dinis et al., using ferrous chloride instead of ferrous sulfate. In this method, ferrozine can form complexes with a ferrous ion in a quantitative way yielding a red color with maximum absorbance at 562 nm. In the presence of other iron chelators, a decoloration is observed due to the competition with ferrozine for the metal. The assay was carried out in a 96 well plate. Serial dilutions of test compound (0, 5, 10, 25, 50, 100, 150, 200 µM) were dispensed (180 µL) into each well and then 10 µL of FeCl2 1 mM were added (final FeCl2 concentration, […]). After shaking the plate for 1 min, 10 µL of Ferrozine 2 mM were added. The mixture was shaken thoroughly and left to stand for 20 min at room temperature. The absorbance was measured at 562 nm with a Varioskan microplate reader. […] The compound iron chelation activity was calculated as the percentage of inhibition of the Fe^+2-Ferrozine complex by the formula in Equation (3):%Inhibition = {(Ao − As)/Ao} × 100(3) where Ao is the absorbance of the control, and As is the absorbance in the presence of the test compound. EDTA was used as a positive control. All the experiments were performed three times by quadruplicate for each compound concentration.

Row | Structure (SMILES) | IC50 [1] | ABTS-TEAC100 [1] | FRAP-TEAC100 [2] | FRAP Assay (%) at 100 µM [2] | FRAP Assay (%) at 200 µM [2] | IC50 at 24 h [3] | IC50 [4] | Inhibition of the Fe^+2-Ferrozine complex [5]
1 | O=C(/C=C(O)/C=C/c1ccc(O)cc1F)c1ccccc1 [Compound 4a, (2Z,4E)-5-(2-fluoro-4-hydroxyphenyl)-3-hydroxy-1-phenylpenta-2,4-dien-1-one] | 108 ± 7.6 µM | 0.40 | 0.15 | 9.8% | 14.3% | 104 ± 7.1 µM |  | 
2 | O=C(/C=C(O)/C=C/c1ccc(O)c(F)c1)C(F)(F)F [Compound 3b, (3Z,5E)-1,1,1-trifluoro-6-(3-fluoro-4-hydroxyphenyl)-4-hydroxyhexa-3,5-dien-2-one] | 113 ± 12.4 µM | 0.67 | 0.34 | 19.7% | 32.6% | 109 ± 7.6 µM |  | 
3 | O=C(/C=C(O)/C=C/c1cc(F)c(O)cc1F)c1ccccc1 [Compound 6a, (2Z,4E)-5-(2,5-difluoro-4-hydroxyphenyl)-3-hydroxy-1-phenylpenta-2,4-dien-1-one] | 67.2 ± 2.7 µM | 0.51 | 0.25 | 15.5% | 25.2% | 134 ± 6.6 µM |  | 
4 | O=C(/C=C(O)/C=C/c1ccc(F)c(O)c1F)C(F)(F)F [Compound 5b, (3Z,5E)-6-(2,4-difluoro-3-hydroxyphenyl)-1,1,1-trifluoro-4-hydroxyhexa-3,5-dien-2-one] | 518 ± 94.6 µM | 0.32 | 0.05 | 3.0% | 4.7% | 153 ± 21 µM |  | 
5 | O=C(/C=C(O)/C=C/c1ccc(O)cc1F)C(F)(F)F [Compound 4b, (3Z,5E)-1,1,1-trifluoro-6-(2-fluoro-4-hydroxyphenyl)-4-hydroxy-hexa-3,5-dien-2-one] | 216 ± 39.5 µM | 0.52 | 0.09 | 4.8% | 8.5% | 138 ± 6.5 µM |  | 
6 | O=C(/C=C(O)/C=C/c1ccc(F)c(O)c1F)c1ccccc1 [Compound 5a, (2Z,4E)-5-(2,4-difluoro-3-hydroxyphenyl)-3-hydroxy-1-phenylpenta-2,4-dien-1-one] | 275 ± 35.3 µM | 0.23 | 0.05 | 3.4% | 5.3% | 119 ± 8.5 µM |  | 
7 | COc1cc(/C=C/C(O)=C/C(=O)C(F)(F)F)ccc1O [Compound 1b, (3Z,5E)-1,1,1-trifluoro-4-hydroxy-6-(4-hydroxy-3-methoxyphenyl)hexa-3,5-dien-2-one] | 34.6 ± 2.7 µM | 0.73 | 0.64 | 36.6% | 61.4% | 102 ± 5.6 µM | 53.8 ± 2.6 µM | 
8 | COc1cc(/C=C/C(O)=C/C(=O)C(F)(F)F)ccc1F [Compound 2b, (3Z,5E)-1,1,1-trifluoro-6-(4-fluoro-3-methoxyphenyl)-4-hydroxyhexa-3,5-dien-2-one] | > 600 µM | 0.23 | 0.03 | 1.9% | 3.1% | 88 ± 4.5 µM |  | 
9 | O=C(O)CN(CCN(CC(=O)O)CC(=O)O)CC(=O)O [EDTA, reference compound] |  |  |  |  |  |  |  | completely inhibits
10 | Cc1c(C)c2c(c(C)c1O)CCC(C)(C(=O)O)O2 (centres unmarked) [Trolox, reference compound] | 34 ± 2.3 µM | 1 | 1 | 53.0% | 100.0% |  | 19 ± 1.8 µM | 
11 | COc1cc(/C=C/C(O)=C/C(=O)c2ccccc2)ccc1F [Compound 2a, (2Z,4E)-5-(4-fluoro-3-methoxyphenyl)-3-hydroxy-1-phenylpenta-2,4-dien-1-one] | > 600 µM | 0.21 | 0.00 | 0.1% | 0.7% | 75.7 ± 5.4 µM |  | 
12 | O=C(/C=C(O)/C=C/c1ccc(O)c(F)c1)c1ccccc1 [Compound 3a, (2Z,4E)-5-(3-fluoro-4-hydroxyphenyl)-3-hydroxy-1-phenylpenta-2,4-dien-1-one] | 60.2 ± 2.2 µM | 0.51 | 0.33 | 20.5% | 31.0% | 98.1 ± 8.3 µM |  | 

Source: PMC6222706, “Evaluation of the Antioxidant and Neuroprotectant Activities of New Asymmetrical 1,3-Diketones” (Molecules : A Journal of Synthetic Chemistry and Natural …, 2018)
